Experimental data: US20080031866A1, “METHOD FOR MODULATING THE PHARMACOKINETICS AND METABOLISM OF A THERAPEUTIC AGENT” (priority 2006, published 2008)
In brackets after ≈: the same amount, converted by molar mass. Where two headings read alike, the source gives them in different places.

How the values were obtained:
[1] = Intraduodenal dosing with and without β-glucuronidase, catheterized rat; format: in vivo; conditions: for Increase in AUC with β-glucuronidase: with vs no enzyme; for AUC / Cmax / concentration at 0 h / concentration at 0.25 h / concentration at 0.5 h / concentration at 1 h / concentration at 2 h / concentration at 3 h / concentration at 4 h / concentration at 5 h / concentration at 6 h / AUC average ± standard deviation 0 to 6 hours / Cmax average ± standard deviation: 10 mg/kg, rats N=6; for AUC: read-out: AUC average ± standard deviation 0 to 6 hours; for Cmax: read-out: Cmax average ± standard deviation; for concentration at 0 h / concentration at 0.25 h / concentration at 0.5 h / concentration at 1 h / concentration at 2 h / concentration at 3 h / concentration at 4 h / concentration at 5 h / concentration at 6 h: other: intraduodenal
Protocol: A catheterized rat model was used in which the agent alone or agent and β-glucuronidase enzyme was administered intraduodenally or intracolonically. The intraduodenal and intracolonic dosing was intended to prevent the potential for loss of enzymatic activity when orally dosing the β-glucuronidase (e.g. by degradation in the stomach). […]
For the oral gavage dosing, Compound 1 was prepared in neat PEG-400. For the intraduodenal and intracolonic dosing solutions, Compound 1 was added to neat Tween 80, the mixture was sonicated for thirty minutes at 45° C. until Compound 1 was completely dissolved and then deionized (DI) water was added to form a solution consisting of 20% Tween 80 and 80% DI water by weight.
For the oral enzyme solutions, β-glucuronidase was added to the final formulation at a concentration of 57,600 units/ml.
For the intraduodenal and intracolonic dosing, male Sprague Dawley rats weighing 300-400 g were purchased from Charles River Labs. All rat experiments were conducted under approved animal protocols. The rats were catheterized at Charles River Labs and had one or more of the following chronic catheters for dosing and sampling: jugular/carotid, duodenal, and colonic. Rats were limited to only one GI catheter and one vascular catheter. For IV dosing, rats were purchased with jugular and carotid catheters for dosing in the jugular catheter and blood sampling through the carotid catheter. For intraduodenal/intracolonic dosing, rats had one of the GI catheters for dosing and a carotid catheter for blood sampling.
The surgeries were done two weeks prior to start of testing. Rats were fed 4 hours post dose administration. All rats were dosed without anesthesia and sacrificed at the end of the study.
A quantitative method for determining the amount of (6,7-dimethoxy-2,4-dihydro-indeno[1,2-c]pyrazol-3-yl)-(3-fluoro-phenyl)-amine Compound 1 and its major metabolites, glucuronide A (Cpd 1-GluA) and glucuronide B (Cpd 1-GluB) (see Scheme A) in rat plasma was developed using phenacetin as an internal standard. [drawing 1]
The two glucuronide conjugates were prepared and purified to permit accurate quantification of the levels of intact parent Compound 1 versus Cpd 1-GluA and Cpd 1-GluB. Each standard curve for Compound 1, Cpd 1-GluA, and Cpd 1-GluB generated from rat plasma included ten concentration levels. […] The quantitative procedure for each sample included: sample preparation, HPLC separation and mass spectrometry detection.
The rat plasma was prepared using protein precipitation techniques. Reference standards and quality control samples in rat plasma for Compound 1 were transferred to a 96 deep-well plate. The precipitation solution contained 100 ng/ml of internal standard in acetonitrile. 300 μl of precipitation solution were added to 100 μl of each standard, quality control and plasma sample. Samples were vortexed for 10 mins, then centrifuged at 4500 RPM for 10 mins. 10 μl of each sample were injected for LC/MS/MS analysis.
The HPLC column chosen for the bioanalysis was purchased from Thermo Electron (Hypersil BetaBasic C18, 5 cm×2.1 mm). The eluting solvents were composed of Solvent A: 0.1% formic acid in H2O and Solvent B: 0.1% formic acid in acetonitrile. A step gradient was used and flow rate was 300 μl/min. The total run time was 3.2 mins. Solvent B was increased from 35% at 0 min to 75% at 2.1 mins and decreased back to 35% at 2.2 mins. The retention times for Compound 1, phenacetin, Cpd 1-GluA and Cpd 1-GluB were 1.1 min, 0.9 min, 1.3 min, and 1.6 min, respectively.
API3000 with a Turbo Ionspray interface from Applied Biosystems was used for the detection of Compound 1, the internal standard and major metabolites. Electrospray ionization was performed in the positive ion mode heated nebulizer with a temperature of 300° C. LC/MS/MS chromatograms were acquired in MRM (multiple reaction mode). […]

[2] = Solubility; format: physicochemical
[3] = Absorption (physicochemical properties)
[4] = male, Sprague Dawley, rat, plasma, Compound 1 10 mg/kg intraduodenal with β-glucuronidase
[5] = male, Sprague Dawley, rat, plasma, Compound 1 10 mg/kg intraduodenal without enzyme
[6] = Compound 1 10 mg/kg intraduodenal with β-glucuronidase
[7] = Compound 1 10 mg/kg intraduodenal without enzyme

Increase in AUC with β-glucuronidase ([1]; intraduodenal 10 mg/kg): 2.9 fold
Increase in AUC with β-glucuronidase ([1]; intraduodenal): 294%
AUC [1, 4]: 177 ± 55 ng·h/mL
Cmax [1, 4]: 129 ± 41 ng/mL
AUC [1, 5]: 60 ± 18 ng·h/mL
Cmax [1, 5]: 75 ± 30 ng/mL
concentration at 0 h [1, 4]: 0 ng/mL
concentration at 0.25 h [1, 4]: 129 ± 41.4 ng/mL
concentration at 0.5 h [1, 4]: 107 ± 26.6 ng/mL
concentration at 1 h [1, 4]: 75.6 ± 35 ng/mL
concentration at 2 h [1, 4]: 21.2 ± 12.5 ng/mL
concentration at 3 h [1, 4]: 12.9 ± 4.3 ng/mL
concentration at 4 h [1, 4]: 9.5 ± 3.1 ng/mL
concentration at 5 h [1, 4]: 3.7 ± 6.3 ng/mL
concentration at 6 h [1, 4]: 1.7 ± 2.7 ng/mL
concentration at 0 h [1, 5]: 0 ng/mL
concentration at 0.25 h [1, 5]: 75.2 ± 30.3 ng/mL
concentration at 0.5 h [1, 5]: 55.1 ± 15.5 ng/mL
concentration at 1 h [1, 5]: 18.7 ± 5.9 ng/mL
concentration at 2 h [1, 5]: 3.2 ± 0.6 ng/mL
concentration at 3 h [1, 5]: 1.5 ± 0.9 ng/mL
concentration at 4 h [1, 5]: 1.6 ± 0.7 ng/mL
concentration at 5 h [1, 5]: 0 ng/mL
concentration at 6 h [1, 5]: 0 ng/mL
Tmax ([1]; male, Sprague Dawley, rat, plasma, intraduodenal 10 mg/kg, unchanged with or without enzyme): 30 min
AUC average ± standard deviation 0 to 6 hours [1, 6]: 177.4 ± 55.3 ng·h/mL
Cmax average ± standard deviation [1, 6]: 129.4 ± 41.1 ng/mL
AUC average ± standard deviation 0 to 6 hours [1, 7]: 60.3 ± 17.8 ng·h/mL
Cmax average ± standard deviation [1, 7]: 76.0 ± 29.0 ng/mL
solubility ([2]; aqueous media, aqueous buffer, pH 3.0, read-out: Solubility in aqueous media): < 6 µg/mL
solubility ([2]; aqueous media, aqueous buffer, pH 7.0, read-out: Solubility in aqueous media): < 2 µg/mL
solubility ([2]; aqueous with cosolvent or surfactant or cyclodextrin, 20/80-weight% Tween 80/DI water, read-out: Solubility): 10000 µg/mL (≈ 30.7 mM)
solubility ([2]; neat PEG-400, organic solvent or mixture, read-out: Solubility): 7500 µg/mL (≈ 23.1 mM)
Absorption [3]: 1.3e-05 cm/s
SMILES: COc1cc2c(cc1OC)-c1n[nH]c(Nc3cccc(F)c3)c1C2 [Compound 1, (6,7-dimethoxy-2,4-dihydro-indeno[1,2-c]pyrazol-3-yl)-(3-fluoro-phenyl)-amine]
